{"source": "patent US8192962B2", "about": "“Processes for detecting toxic substances” (Daikin Industries, Ltd., priority 2001, dated 2012)", "tested_on": "Mitochondria-located protein genes", "assay": "DNA chip mRNA expression in yeast, mitochondria-located protein genes (Table 2)", "format": "cell-based, Saccharomyces cerevisiae S288C", "settings": "cells incubated two hours with the chemical substance", "experimental": "Yeast (Saccharomyces cerevisiae S288C (α SUC2mal mel gap2 CUP1)) were incubated at 25° C. on YPD medium (yeast extract 1%, polypepton 2%, glucose 2%). One of toxic chemical substances was added to the cells at logarithmic growth phase, and the cells were further incubated for two hours. Cells were cultured without any chemical substance in the same condition, and were used as control. Concentrations of the chemical substances were defined to inhibit the growth of the yeast but not lead to death.\nAfter completion of the incubation, the culture was centrifuged to collect the cells. To the cells, sodium acetate buffer (50 mM sodium acetate, 10 mM EDTA, 1% SDS) was added, and the mixture was shaken at 65° C. for five minutes, followed by returning to room temperature, and obtaining the supernatant, of which the procedures were repeated two times. To the supernatant, ½ amount of a solution of phenol/chloroform was added, and the mixture was centrifuged to give a supernatant, which was added with an equal amount of chloroform, and the mixture was centrifuged to give a supernatant. To the supernatant, an equal amount of isopropanol containing 0.3 M sodium acetate was added, and the mixture was allowed to stand at room temperature for 30 minutes, after which the mixture was centrifuged to give a sediment of the whole RNAs. Seventy % ethanol was added to the sediment, and the mixture was again centrifuged to give a sediment, which was then dried and dissolved in water. mRNA was isolated from the whole RNAs as followings. In view of the fact that a poly A chain is attached to the 3′ terminus of mRNA, a polynucleotide having a poly T structure which was immobilized on the surface of latex beads was used to trap the mRNA, and then the mRNA was washed and eluted with spine column (Oligotex-dT30<Super>mRNA Purification Kit, Takara). Reverse transcription of the mRNA was conducted with a reverse transcriptase (Super Script II Reverse Transcriptase; catalogue No. 18064-014, GibcoBRL) using fluorescence-labeled nucleotides to give cDNAs that were introduced with Cy3-dUTP or Cy5-dUTP during the reverse transcription.\nThe labeled cDNAs were dissolved in TE buffer (10mM Tris-HCl/1 mM EDTA, pH8.0), and the solution was dropped on the DNA chip containing the whole genes of yeast (DNA Chip Research Inc. Japan) so that the cDNAs were hybridized on the DNA chip at 65° C. for over 12 hours. The fluoresces intensity of the DNA chip was read with a scanner, and the ratio relative to the fluorescence intensity resulting from the absence of chemical substance was estimated as the following, which is shown in Tables 1 to 9: […]", "data": [{"smiles": "CCCCCCCCCCCCc1ccc(S(=O)(=O)[O-])cc1.[Na+]", "note": "[(17), sodium dodecylbenzosulfonate]", "values": [{"measurement": "The level of expressed mRNA in the presence of chemical substance/The level of expressed mRNA in the absence of chemical substance", "setting": "yeast gene YAL039C", "value": 1.4}, {"measurement": "The level of expressed mRNA in the presence of chemical substance/The level of expressed mRNA in the absence of chemical substance", "setting": "yeast gene YBL022C", "value": 0.9}, {"measurement": "The level of expressed mRNA in the presence of chemical substance/The level of expressed mRNA in the absence of chemical substance", "setting": "yeast gene YBL030C", "value": 1.0}, {"measurement": "The level of expressed mRNA in the presence of chemical substance/The level of expressed mRNA in the absence of chemical substance", "setting": "yeast gene YBL038W", "value": 1.2}, {"measurement": "The level of expressed mRNA in the presence of chemical substance/The level of expressed mRNA in the absence of chemical substance", "setting": "yeast gene YBL099W", "value": 0.7}, {"measurement": "The level of expressed mRNA in the presence of chemical substance/The level of expressed mRNA in the absence of chemical substance", "setting": "yeast gene YBR003W", "value": 1.1}, {"measurement": "The level of expressed mRNA in the presence of chemical substance/The level of expressed mRNA in the absence of chemical substance", "setting": "yeast gene YBR044C", "value": 0.9}, {"measurement": "The level of expressed mRNA in the presence of chemical substance/The level of expressed mRNA in the absence of chemical substance", "setting": "yeast gene YBR091C", "value": 1.0}, {"measurement": "The level of expressed mRNA in the presence of chemical substance/The level of expressed mRNA in the absence of chemical substance", "setting": "yeast gene YBR122C", "value": 0.9}, {"measurement": "The level of expressed mRNA in the presence of chemical substance/The level of expressed mRNA in the absence of chemical substance", "setting": "yeast gene YBR185C", "value": 0.8}, {"measurement": "The level of expressed mRNA in the presence of chemical substance/The level of expressed mRNA in the absence of chemical substance", "setting": "yeast gene YBR221C", "value": 0.9}, {"measurement": "The level of expressed mRNA in the presence of chemical substance/The level of expressed mRNA in the absence of chemical substance", "setting": "yeast gene YBR251W", "value": 0.9}, {"measurement": "The level of expressed mRNA in the presence of chemical substance/The level of expressed mRNA in the absence of chemical substance", "setting": "yeast gene YBR282W", "value": 0.9}, {"measurement": "The level of expressed mRNA in the presence of chemical substance/The level of expressed mRNA in the absence of chemical substance", "setting": "yeast gene YCL057W", "value": 0.9}, {"measurement": "The level of expressed mRNA in the presence of chemical substance/The level of expressed mRNA in the absence of chemical substance", "setting": "yeast gene YCR046C", "value": 1.3}, {"measurement": "The level of expressed mRNA in the presence of chemical substance/The level of expressed mRNA in the absence of chemical substance", "setting": "yeast gene YCR083W", "value": 1.3}, {"measurement": "The level of expressed mRNA in the presence of chemical substance/The level of expressed mRNA in the absence of chemical substance", "setting": "yeast gene YDL067C", "value": 1.2}, {"measurement": "The level of expressed mRNA in the presence of chemical substance/The level of expressed mRNA in the absence of chemical substance", "setting": "yeast gene YDL181W", "value": 1.5}, {"measurement": "The level of expressed mRNA in the presence of chemical substance/The level of expressed mRNA in the absence of chemical substance", "setting": "yeast gene YDL198C", "value": 1.5}, {"measurement": "The level of expressed mRNA in the presence of chemical substance/The level of expressed mRNA in the absence of chemical substance", "setting": "yeast gene YDR079W", "value": 1.1}, {"measurement": "The level of expressed mRNA in the presence of chemical substance/The level of expressed mRNA in the absence of chemical substance", "setting": "yeast gene YDR178W", "value": 1.2}, {"measurement": "The level of expressed mRNA in the presence of chemical substance/The level of expressed mRNA in the absence of chemical substance", "setting": "yeast gene YDR231C", "value": 1.2}, {"measurement": "The level of expressed mRNA in the presence of chemical substance/The level of expressed mRNA in the absence of chemical substance", "setting": "yeast gene YDR258C", "value": 1.3}, {"measurement": "The level of expressed mRNA in the presence of chemical substance/The level of expressed mRNA in the absence of chemical substance", "setting": "yeast gene YDR298C", "value": 1.1}, {"measurement": "The level of expressed mRNA in the presence of chemical substance/The level of expressed mRNA in the absence of chemical substance", "setting": "yeast gene YDR347W", "value": 0.9}, {"measurement": "The level of expressed mRNA in the presence of chemical substance/The level of expressed mRNA in the absence of chemical substance", "setting": "yeast gene YDR377W", "value": 1.2}, {"measurement": "The level of expressed mRNA in the presence of chemical substance/The level of expressed mRNA in the absence of chemical substance", "setting": "yeast gene YDR529C", "value": 1.0}, {"measurement": "The level of expressed mRNA in the presence of chemical substance/The level of expressed mRNA in the absence of chemical substance", "setting": "yeast gene YEL024W", "value": 1.1}, {"measurement": "The level of expressed mRNA in the presence of chemical substance/The level of expressed mRNA in the absence of chemical substance", "setting": "yeast gene YEL039C", "value": 0.7}, {"measurement": "The level of expressed mRNA in the presence of chemical substance/The level of expressed mRNA in the absence of chemical substance", "setting": "yeast gene YER178W", "value": 1.1}, {"measurement": "The level of expressed mRNA in the presence of chemical substance/The level of expressed mRNA in the absence of chemical substance", "setting": "yeast gene YFL016C", "value": 1.2}, {"measurement": "The level of expressed mRNA in the presence of chemical substance/The level of expressed mRNA in the absence of chemical substance", "setting": "yeast gene YGL018C", "value": 0.8}, {"measurement": "The level of expressed mRNA in the presence of chemical substance/The level of expressed mRNA in the absence of chemical substance", "setting": "yeast gene YGL187C", "value": 0.9}, {"measurement": "The level of expressed mRNA in the presence of chemical substance/The level of expressed mRNA in the absence of chemical substance", "setting": "yeast gene YGL191W", "value": 1.2}, {"measurement": "The level of expressed mRNA in the presence of chemical substance/The level of expressed mRNA in the absence of chemical substance", "setting": "yeast gene YGR008C", "value": 1.7}, {"measurement": "The level of expressed mRNA in the presence of chemical substance/The level of expressed mRNA in the absence of chemical substance", "setting": "yeast gene YGR028W", "value": 1.5}, {"measurement": "The level of expressed mRNA in the presence of chemical substance/The level of expressed mRNA in the absence of chemical substance", "setting": "yeast gene YGR062C", "value": 0.9}, {"measurement": "The level of expressed mRNA in the presence of chemical substance/The level of expressed mRNA in the absence of chemical substance", "setting": "yeast gene YGR076C", "value": 0.9}, {"measurement": "The level of expressed mRNA in the presence of chemical substance/The level of expressed mRNA in the absence of chemical substance", "setting": "yeast gene YGR082W", "value": 0.9}, {"measurement": "The level of expressed mRNA in the presence of chemical substance/The level of expressed mRNA in the absence of chemical substance", "setting": "yeast gene YGR174C", "value": 1.3}, {"measurement": "The level of expressed mRNA in the presence of chemical substance/The level of expressed mRNA in the absence of chemical substance", "setting": "yeast gene YGR244C", "value": 1.9}, {"measurement": "The level of expressed mRNA in the presence of chemical substance/The level of expressed mRNA in the absence of chemical substance", "setting": "yeast gene YHR008C", "value": 0.9}, {"measurement": "The level of expressed mRNA in the presence of chemical substance/The level of expressed mRNA in the absence of chemical substance", "setting": "yeast gene YIL155C", "value": 1.1}, {"measurement": "The level of expressed mRNA in the presence of chemical substance/The level of expressed mRNA in the absence of chemical substance", "setting": "yeast gene YJL096W", "value": 1.1}, {"measurement": "The level of expressed mRNA in the presence of chemical substance/The level of expressed mRNA in the absence of chemical substance", "setting": "yeast gene YJL102W", "value": 1.0}, {"measurement": "The level of expressed mRNA in the presence of chemical substance/The level of expressed mRNA in the absence of chemical substance", "setting": "yeast gene YJL133W", "value": 0.8}, {"measurement": "The level of expressed mRNA in the presence of chemical substance/The level of expressed mRNA in the absence of chemical substance", "setting": "yeast gene YJL166W", "value": 1.7}, {"measurement": "The level of expressed mRNA in the presence of chemical substance/The level of expressed mRNA in the absence of chemical substance", "setting": "yeast gene YJL180C", "value": 0.9}, {"measurement": "The level of expressed mRNA in the presence of chemical substance/The level of expressed mRNA in the absence of chemical substance", "setting": "yeast gene YJR045C", "value": 0.7}, {"measurement": "The level of expressed mRNA in the presence of chemical substance/The level of expressed mRNA in the absence of chemical substance", "setting": "yeast gene YJR077C", "value": 1.0}]}]}
